In the supplement of paper PMC10307832:

Columns and labels:
Assay in all cases: relative viability (nuclei count vs DMSO), 5 days (fraction); higher = more cells survive
IU1-47 + Crizotinib = compound: CC1=CC(=C(N1C2=CC=C(C=C2)Cl)C)C(=O)CN3CCCCC3 [IU1-47] + C[C@@H](Oc1cc(-c2cnn(C3CCNCC3)c2)cnc1N)c1c(Cl)ccc(F)c1Cl [Crizotinib] (partner 1 µM)
Outline: (§1)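 Lung cancer cell lines in 1536-well plates were dosed by pin tool the day after seeding, either with one drug alone or with a fixed anchor-drug dose plus five library-drug doses (not always all listed) in √10 steps. After 5 days, cells were fixed and their nuclei stained in one step (final 0.05% Triton X-100, 1% formaldehyde, 1 ug/ml Hoechst), then counted on 4× images. Relative viability is the nuclei count in treated wells divided by that in vehicle wells. Values are medians of duplicate plates.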

FG-4592 + Palbociclib = compound: Cc1nc(C(=O)NCC(=O)O)c(O)c2ccc(Oc3ccccc3)cc12 [FG-4592] + CC(=O)c1c(C)c2cnc(Nc3ccc(N4CCNCC4)cn3)nc2n(C2CCCC2)c1=O [Palbociclib] (partner 0.5 µM)
Outline: as §1

IU1-47 + Linsitinib = compound: CC1=CC(=C(N1C2=CC=C(C=C2)Cl)C)C(=O)CN3CCCCC3 [IU1-47] + C[C@]1(O)C[C@@H](c2nc(-c3ccc4ccc(-c5ccccc5)nc4c3)c3c(N)nccn32)C1 [Linsitinib] (partner 1 µM)
Outline: as §1

FG-4592 + Decitabine = compound: Cc1nc(C(=O)NCC(=O)O)c(O)c2ccc(Oc3ccccc3)cc12 [FG-4592] + Nc1ncn([C@H]2C[C@H](O)[C@@H](CO)O2)c(=O)n1 [Decitabine] (partner 2 µM)
Outline: as §1

Cell Line	relative viability (IU1-47 + Crizotinib; first compound 0.08 µM)	relative viability (IU1-47 + Crizotinib; first compound 0.253 µM)	relative viability (IU1-47 + Crizotinib; first compound 0.8 µM)	relative viability (IU1-47 + Crizotinib; first compound 2.53 µM)	relative viability (IU1-47 + Crizotinib; first compound 8 µM)	relative viability (FG-4592 + Palbociclib; first compound 0.08 µM)	relative viability (FG-4592 + Palbociclib; first compound 0.253 µM)	relative viability (FG-4592 + Palbociclib; first compound 2.53 µM)	relative viability (FG-4592 + Palbociclib; first compound 8 µM)	relative viability (IU1-47 + Linsitinib; first compound 0.08 µM)	relative viability (IU1-47 + Linsitinib; first compound 0.253 µM)	relative viability (IU1-47 + Linsitinib; first compound 0.8 µM)	relative viability (IU1-47 + Linsitinib; first compound 2.53 µM)	relative viability (IU1-47 + Linsitinib; first compound 8 µM)	relative viability (FG-4592 + Decitabine; first compound 0.08 µM)	relative viability (FG-4592 + Decitabine; first compound 0.253 µM)	relative viability (FG-4592 + Decitabine; first compound 2.53 µM)	relative viability (FG-4592 + Decitabine; first compound 8 µM)	relative viability (FG-4592 + Palbociclib; first compound 0.8 µM)	relative viability (FG-4592 + Decitabine; first compound 0.8 µM)
LU99A	0.503	0.538	0.538	0.739	0.617	0.38	0.417	0.432	0.382	0.538	0.511	0.656	0.602	0.54	0.842	0.796	0.906	0.795		
LXF-289	0.854	0.858	0.82	0.796	0.817	0.551	0.563	0.588	0.603	0.984	0.998	1.02	0.954	0.954	0.425	0.386	0.378	0.305	0.615	0.35
NCI-H23	0.533	0.528	0.506	0.638	0.48	0.628	0.45	0.547	0.453	0.607	0.741	0.686	0.665	0.533	0.322	0.268	0.265	0.267	0.501	0.334
NCI-H322M	1.02	0.923	0.888	1.07	0.954		0.455	0.465	0.483	1	0.88	1.03	0.927	0.887		0.658	0.638	0.725	0.444	0.714
NCI-H358	0.532	0.607	0.516		0.495	0.114	0.141	0.128	0.136	0.737	0.791	0.75		0.703	0.213	0.194	0.192	0.202	0.128	0.288
NCI-H441	0.778	0.887	0.813	0.889	0.775	0.226	0.214	0.226	0.186	0.703	0.49	0.594	0.438	0.44	0.235	0.255	0.232	0.25	0.208	0.234
NCI-H460	0.955	1.1	1.05	0.861	1.46	0.204	0.168	0.155	0.119	1.21	1.1	0.986	0.665	0.559	0.448	0.461	0.482	0.51	0.173	0.51
NCI-H520	0.815	0.984	0.627	0.8	0.499	0.15	0.174	0.215	0.162	0.849	1.13	0.934	0.974	0.666	0.454	0.443	0.577	0.434	0.192	0.493
NCI-H647	1.01	1.22	0.99	1.07	0.561	0.422	0.416	0.374	0.175	1.22	1.2	1.12	1.19	1.01	0.347	0.326	0.372	0.227	0.366	0.341
NCI-H650	0.685	0.788	0.695	0.71	0.648	0.338	0.264	0.321	0.263	0.831	0.966	0.924	0.796	0.875	0.314	0.275	0.296	0.306	0.327	0.301
NCI-H661	1.21	0.975	0.981	1.06	1.12	0.397	0.408	0.397	0.396	0.622	0.644	0.596	0.419	0.474	0.526	0.469	0.535	0.484	0.373	0.563
NCI-H727	0.929		0.857	0.798	0.658	0.674	0.589	0.659	0.626	0.315		0.274	0.221	0.269	0.889	0.663	0.9	0.84	0.575	1.15
NCI-H838	0.858	0.895	0.844	1.03	0.669	0.192	0.218	0.218	0.174	1.07	1.07	1.12	1.09	1.07	0.456	0.439	0.459	0.443	0.198	0.446
NCI-H1355	1.17	1.09	1.14	1	1.14	0.394	0.38	0.382	0.356	0.873	0.844	0.933	0.74	0.686	0.355	0.297	0.378	0.307		
NCI-H1437	0.909	0.952	0.81	0.926	0.795	0.313	0.314	0.312	0.243	1.11	1.02	0.959	1.01	0.704	0.576	0.512	0.632	0.534	0.299	0.606
NCI-H1651	0.887	0.873	0.889	0.804	0.863	0.522	0.488	0.518	0.458	1.22	1.14	1		0.771	0.713	0.603	0.668	0.499	0.488	0.703
